Tests used:
[1] = system: CD-i mice; assay: TQL-1055 HP-β-CD dose ranging study: weight loss and survival; details: for Deaths (D 7) / Deaths (D 21): CD-1 mice, I.M.; for Deaths (D 7): post dose 1; for Deaths (D 21): post dose 2 (day 14)
[2] = system: mouse strains (C57BL/6J, BALB/cJ, CD-i); assay: Tolerability (mortality) of soluble TQL-1055 formulations across three mouse strains; format: in vivo
Protocol: The tolerability of soluble TQL-1055 formulations, including TQL-1055 FA (free acid) HP-β-CD and TQL-1055 ISKS (in situ potassium salt) HP-β-CD formulations, administered over a range of doses was examined across three mouse strains (C57BL/6J, BALB/cJ, CD-i). The following experimental groups were used. I.M. administration was performed.
The mortality rate 7 days after injection was observed.
A Logrank (Mantel-Cox) test was performed to assess survival distributions of the foregoing groups.

[3] = system: cancer patients; well (non-cancer) adult and child recipients; details: cited from earlier work
[4] = no antigen, HPβCD dose equivalent to group 4
[5] = with 0.1 μg PR8 HA, HPβCD dose equivalent to group 4

2-hydroxypropyl beta-cyclodextrin [HPβCD alone]
Deaths (D 7) [1, 4]: 0/10
Deaths (D 7) [1, 5]: 0/10
Deaths (D 21) [1, 4]: 0/10
Deaths (D 21) [1, 5]: 0/10
Mortality (follow-on studies, text) ([1]; mice, TQL-1055 without HP-β-CD, or HP-β-CD without TQL-1055, any dose tested): did not result in mortality

CC1O[C@@H](OC2C(O)[C@@H](NC(=O)CCCCCCCCCCC(=O)O)C(CO)O[C@H]2OC(=O)[C@]23CCC(C)(C)CC2C2=CCC4C5(C)CC[C@H](O)[C@](C)(C=O)[C@@H]5CC[C@]4(C)[C@]2(C)CC3O)C(O)C(O)[C@H]1O[C@@H]1OC[C@@H](O)C(O)C1O (stereo partly drawn) [TQL1055 FA]
Deaths (D 7) ([1]; no antigen, 50 μg): 0/10
Deaths (D 7) ([1]; no antigen, 100 μg): 0/10
Deaths (D 7) ([1]; no antigen, 200 μg): 0/10
Deaths (D 7) ([1]; with 0.1 μg PR8 HA, 50 μg): 0/10
Deaths (D 7) ([1]; with 0.1 μg PR8 HA, 100 μg): 0/10
Deaths (D 7) ([1]; with 0.1 μg PR8 HA, 198.68 μg): 0/10
Deaths (D 21) ([1]; no antigen, 50 μg): 0/10
Deaths (D 21) ([1]; no antigen, 100 μg): 0/10
Deaths (D 21) ([1]; no antigen, 200 μg): 0/10
Deaths (D 21) ([1]; with 0.1 μg PR8 HA, 50 μg): 0/10
Deaths (D 21) ([1]; with 0.1 μg PR8 HA, 100 μg): 0/10
Deaths (D 21) ([1]; with 0.1 μg PR8 HA, 198.68 μg): 0/10

QS-21
Deaths ([2]; BALB/cJ mice, 20 μg I.M., 7 days after injection): 0/10
Deaths ([2]; BALB/cJ mice, 40 μg I.M., 7 days after injection): 0/10
Deaths ([2]; BALB/cJ mice, 60 μg I.M., 7 days after injection): 0/10
Deaths ([2]; BALB/cJ mice, 80 μg I.M., 7 days after injection): 0/10
Deaths ([2]; BALB/cJ mice, 100 μg I.M., 7 days after injection): 0/10
Deaths ([2]; C57BL/6J mice, 20 μg I.M., 7 days after injection): 0/10
Deaths ([2]; C57BL/6J mice, 40 μg I.M., 7 days after injection): 2/10
Deaths ([2]; C57BL/6J mice, 60 μg I.M., 7 days after injection): 0/10
Deaths ([2]; C57BL/6J mice, 80 μg I.M., 7 days after injection): 5/10
Deaths ([2]; C57BL/6J mice, 100 μg I.M., 7 days after injection): 10/10
Role of mouse strain in tolerability ([2]; C57BL/6J, BALB/cJ, CD-1 compared): C57BL/6 mice appear to be more sensitive
Deaths ([2]; CD-1 mice, 20 μg I.M., 7 days after injection): 0/10
Deaths ([2]; CD-1 mice, 40 μg I.M., 7 days after injection): 0/10
Deaths ([2]; CD-1 mice, 60 μg I.M., 7 days after injection): 0/10
Deaths ([2]; CD-1 mice, 80 μg I.M., 7 days after injection): 0/10
Deaths ([2]; CD-1 mice, 100 μg I.M., 7 days after injection): 0/10
Mortality ([2]; all three mouse strains, 20-100 μg I.M., 7 days after injection): at least some mice in the other groups (including QS-21) died
tolerated dose ([3]; cancer patients, above it significant local and systemic side effects arise): 100 to 150 µg
highest practical tolerable dose ([3]; well (non-cancer) adult and child recipients): 25 to 50 µg
Deaths (D 7) ([1]; with 0.1 μg PR8 HA, 25 μg): 0/10
Deaths (D 7) ([1]; with 0.1 μg PR8 HA, 50 μg): 0/10
Deaths (D 7) ([1]; with 0.1 μg PR8 HA, 100 μg): 2/10
Deaths (D 21) ([1]; with 0.1 μg PR8 HA, 25 μg): 0/10
Deaths (D 21) ([1]; with 0.1 μg PR8 HA, 50 μg): 0/10
Deaths (D 21) ([1]; with 0.1 μg PR8 HA, 100 μg): 0/8
